Laboratory results published in ChEMBL document CHEMBL1201862, “PubChem BioAssay data set” (2004).
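Following 48 hours of exposure in 96-well plates, responses at five concentrations were used to interpolate endpoints linearly. Abbreviation: GI50, concentration required for 50% inhibition of growth.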 Activity calls are given as the source filed them. No stated cut-off is given here; in the data, active = GI50 up to about 1.1 µM and inactive = higher.

Columns and labels:
Experiment in all cases: growth of human tumour cells (NCI), 48 h
786-0 = tested on: 786-0
A498 = tested on: A498
A549 = tested on: A549
ACHN = tested on: ACHN
BT-549 = tested on: BT-549
CAKI-1 = tested on: CAKI-1
CCRF-CEM = tested on: CCRF-CEM
COLO 205 = tested on: COLO 205
DU-145 = tested on: DU-145
EKVX = tested on: EKVX
HCC 2998 = tested on: HCC 2998
HCT-116 = tested on: HCT-116
HCT-15 = tested on: HCT-15
HL-60 = tested on: HL-60
HOP-62 = tested on: HOP-62
HOP-92 = tested on: HOP-92
HT-29 = tested on: HT-29
Hs-578T = tested on: Hs-578T
IGROV-1 = tested on: IGROV-1
K562 = tested on: K562
KM12 = tested on: KM12
LOX IMVI = tested on: LOX IMVI
M14 = tested on: M14
MCF7 = tested on: MCF7
MDA-MB-231 = tested on: MDA-MB-231
MDA-MB-435 = tested on: MDA-MB-435
MDA-N = tested on: MDA-N
MOLT-4 = tested on: MOLT-4
Malme-3M = tested on: Malme-3M
NCI-H226 = tested on: NCI-H226
NCI-H23 = tested on: NCI-H23
NCI-H460 = tested on: NCI-H460
NCI-H522 = tested on: NCI-H522
NCI/ADR-RES = tested on: NCI/ADR-RES
OVCAR-3 = tested on: OVCAR-3
OVCAR-4 = tested on: OVCAR-4
OVCAR-5 = tested on: OVCAR-5
OVCAR-8 = tested on: OVCAR-8
PC-3 = tested on: PC-3
RPMI-8226 = tested on: RPMI-8226
RXF 393 = tested on: RXF 393
SF-268 = tested on: SF-268
SF-295 = tested on: SF-295
SF-539 = tested on: SF-539
SK-MEL-28 = tested on: SK-MEL-28
SK-MEL-2 = tested on: SK-MEL-2
SK-MEL-5 = tested on: SK-MEL-5
SK-OV-3 = tested on: SK-OV-3
SN12C = tested on: SN12C
SNB-19 = tested on: SNB-19
SNB-75 = tested on: SNB-75
SW-620 = tested on: SW-620
T47D = tested on: T47D
TK-10 = tested on: TK-10
U-251 = tested on: U-251
UACC-257 = tested on: UACC-257
UACC-62 = tested on: UACC-62
UO-31 = tested on: UO-31

Cc1cc2oc(=O)c(Cl)c(Cl)c2c(C)c1Cl
GI50 (786-0): 3.15 µM (inactive)
GI50 (A498): 19.9 µM (inactive)
GI50 (A549): 15.7 µM (inactive)
GI50 (ACHN): 11.2 µM (inactive)
GI50 (BT-549): 7.26 µM (inactive)
GI50 (CAKI-1): 4.74 µM (inactive)
GI50 (CCRF-CEM): 2.83 µM (inactive)
GI50 (COLO 205): 2.56 µM (inactive)
GI50 (DU-145): 14.6 µM (inactive)
GI50 (EKVX): 14.8 µM (inactive)
GI50 (HCC 2998): 5.51 µM (inactive)
GI50 (HCT-116): 3.78 µM (inactive)
GI50 (HCT-15): 3.5 µM
GI50 (HL-60): 1.91 µM (inactive)
GI50 (HOP-62): 24.6 µM (inactive)
GI50 (HOP-92): 1.58 µM (inactive)
GI50 (HT-29): 4.78 µM (inactive)
GI50 (Hs-578T): 2.59 µM (inactive)
GI50 (IGROV-1): 4.3 µM (inactive)
GI50 (K562): 1.95 µM (inactive)
GI50 (KM12): 15.1 µM (inactive)
GI50 (LOX IMVI): 2.76 µM (inactive)
GI50 (M14): 10.4 µM (inactive)
GI50 (MCF7): 5.64 µM (inactive)
GI50 (MDA-MB-231): 11 µM (inactive)
GI50 (MDA-MB-435): 4.25 µM (inactive)
GI50 (MDA-N): 2.92 µM (inactive)
GI50 (MOLT-4): 2.1 µM (inactive)
GI50 (Malme-3M): 10.8 µM (inactive)
GI50 (NCI-H226): 17.3 µM (inactive)
GI50 (NCI-H23): 6.28 µM (inactive)
GI50 (NCI-H460): 16.7 µM (inactive)
GI50 (NCI-H522): 14.3 µM (inactive)
GI50 (NCI/ADR-RES): 5.5 µM (inactive)
GI50 (OVCAR-3): 2.58 µM (inactive)
GI50 (OVCAR-4): 4.28 µM (inactive)
GI50 (OVCAR-5): 12.1 µM (inactive)
GI50 (OVCAR-8): 3.28 µM (inactive)
GI50 (PC-3): 11.4 µM (inactive)
GI50 (RPMI-8226): 2.35 µM (inactive)
GI50 (RXF 393): 2.84 µM (inactive)
GI50 (SF-268): 3.22 µM (inactive)
GI50 (SF-295): 14.4 µM (inactive)
GI50 (SF-539): 9.35 µM (inactive)
GI50 (SK-MEL-28): 15.4 µM (inactive)
GI50 (SK-MEL-2): 4.44 µM (inactive)
GI50 (SK-MEL-5): 6.93 µM (inactive)
GI50 (SK-OV-3): 14.4 µM (inactive)
GI50 (SN12C): 11.5 µM (inactive)
GI50 (SNB-19): 11.8 µM (inactive)
GI50 (SNB-75): 12.4 µM (inactive)
GI50 (SW-620): 1.37 µM (inactive)
GI50 (T47D): 5.46 µM (inactive)
GI50 (TK-10): 14.8 µM (inactive)
GI50 (U-251): 3.19 µM (inactive)
GI50 (UACC-257): 15.1 µM (inactive)
GI50 (UACC-62): 6.71 µM (inactive)
GI50 (UO-31): 12.7 µM (inactive)
